Assay results published in patent publication US10988465B2, “CXCR4 inhibitors and uses thereof” (X4 Pharmaceuticals, Inc., priority 2016, dated 2021).

Experiments:
[1] = target: T1, CXCR-4 transfected U87 cell line (U87.CXCR4) (Homo sapiens, UniProt P61073); experiment: Intracellular CXCL-12-induced calcium mobilization assay (FLIPR); type: cell-based; settings: U87.CXCR4 cells; CXCL-12 25-50 ng/mL; compound added 15 min before; read-out: IC50 CXCL-12 Ca^2+ flux U87.CXCR4+
T1 construct: expressed in transfected cells; host or cells: U87 (U87.CXCR4)
T1 sequence (P61073 whole entry): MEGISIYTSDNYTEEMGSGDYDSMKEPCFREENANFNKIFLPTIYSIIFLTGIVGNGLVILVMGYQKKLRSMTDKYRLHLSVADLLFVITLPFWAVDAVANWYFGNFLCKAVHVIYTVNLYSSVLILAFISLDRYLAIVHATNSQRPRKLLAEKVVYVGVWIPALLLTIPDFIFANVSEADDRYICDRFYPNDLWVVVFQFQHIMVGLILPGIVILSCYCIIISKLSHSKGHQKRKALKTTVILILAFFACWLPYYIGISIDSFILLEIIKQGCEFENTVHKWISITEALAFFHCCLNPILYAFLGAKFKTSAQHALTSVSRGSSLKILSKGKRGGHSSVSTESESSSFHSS
Method in brief: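 U87 cells stably expressing human CXCR4, loaded with Fluo-2 AM (4 μM final) for 45 min at 37 °C in HBSS/20 mM HEPES/0.2% BSA, pH 7.4. Calcium flux triggered by CXCL-12 (25-50 ng/mL) was followed by FLIPR fluorescence over time at 37 °C.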

[2] = target: T2, Jurkat cells expressing CXCR4 (Homo sapiens, UniProt P61073); experiment: Chemokine (CXCL12-AF647) binding inhibition assay; settings: CXCL12-AF647 25 ng/mL, read-out: IC50 CXCL-12 binding Jurkat
T2 construct: endogenous in cells; host or cells: Jurkat
T2 sequence (P61073 whole entry): as above
Method in brief: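 Cells in HBSS, 20 mM HEPES, 0.2% BSA, pH 7.4, preincubated 15 min at room temperature with compound, then 25 ng/mL CXCL12-AF647 for 30 min. After washing and paraformaldehyde fixation, bound ligand read by flow cytometry; percent inhibition calculated from MFI relative to unlabeled and ligand-only controls.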

in vitro = settings: human, Caco-2, pH 7.4
Method in brief: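 Caco-2 monolayers, checked by TEER with Lucifer yellow as marker, were dosed with 10 μM compound in HBSS pH 7.4 in A-to-B and B-to-A directions. Incubation was 90 min at 37° C, in duplicate. Samples were quantified by LC-MS/MS and Papp calculated.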

| SMILES | IC50 [1] [nM] | IC50 [2] [nM] | Papp A→B at 90 min, 10 μM (in vitro) [×10⁻⁶ cm/s] | Papp B→A at 90 min, 10 μM (in vitro) [×10⁻⁶ cm/s] | efflux ratio at 90 min, 10 μM (in vitro) |
| --- | --- | --- | --- | --- | --- |
| Cc1cccnc1[C@H]1CCC[C@@H](c2nc3cccc(N4CCN(C)CC4)c3[nH]2)N1C (single isomer, unassigned) [I-3b] | 0.01 to 100 | 0.01 to 100 | 0.1 to 10 | 0.1 to 10 | – |
| CNCCCCn1c([C@H]2CCC[C@@H](c3ncccc3C)N2C)nc2ccccc21 [I-37] | ≥ 1000 | 0.01 to 100 | 0.1 to 10 | 10 to 30 | 10 to 30 |
| Cc1cccnc1[C@@H]1CCC[C@H](c2nc3cccc(N4C[C@@H](C)N(C)[C@@H](C)C4)c3[nH]2)N1C [I-54] | 0.01 to 100 | 0.01 to 100 | 10 to 30 | 10 to 30 | 0.1 to 10 |
| Cc1cccnc1[C@@H]1CCC[C@H](c2nc3cccc(C4CCNCC4)c3[nH]2)N1C [I-11, 2-((2R,6S)-1-methyl-6-(3-methylpyridin-2-yl)piperidin-2-yl)-7-(piperidin-4-yl)-1H-benzo[d]imidazole] | 0.01 to 100 | 0.01 to 100 | 0.1 to 10 | 10 to 30 | > 30 |
| Cc1cccnc1[C@@H]1CCC[C@H](c2nccn2Cc2ccccc2-n2cccn2)N1 [I-167] | ≥ 1000 | ≥ 1000 | > 30 | > 30 | 0.1 to 10 |
| Cc1cccnc1[C@@H]1CCC[C@H](c2nccn2C2CCNCC2)N1C [I-179] | 100 to 1000 | 0.01 to 100 | 0.1 to 10 | 10 to 30 | 10 to 30 |
| CN1CCN(c2cccc3nc([C@H]4CCC[C@@H](c5ncccc5OC(F)(F)F)N4C)[nH]c23)CC1 [I-63] | 0.01 to 100 | 100 to 1000 | 10 to 30 | 0.1 to 10 | 0.1 to 10 |
| CCN1CCN(c2cccc3nc([C@H]4CCC[C@@H](c5ncccc5C)N4C)[nH]c23)CC1 [I-74] | 0.01 to 100 | 0.01 to 100 | 10 to 30 | 10 to 30 | 0.1 to 10 |
| CN(C)C1CCN(c2cccc3nc([C@H]4CCC[C@@H](c5ncccc5Cl)N4C)[nH]c23)CC1 [I-97] | ≥ 1000 | 0.01 to 100 | 10 to 30 | 10 to 30 | 0.1 to 10 |
| Cc1cccnc1[C@@H]1CCC[C@H](c2nc3ccccc3n2CCCN)N1C [I-2, 3-(2-((2R,6S)-1-methyl-6-(3-methylpyridin-2-yl)piperidin-2-yl)-1H-benzo[d]imidazol-1-yl)propan-1-amine] | 0.01 to 100 | 0.01 to 100 | 0.1 to 10 | 10 to 30 | > 30 |
| Cc1ccnc([C@@H]2CCC[C@H](c3nc4cccc(N5CCN(C)CC5)c4[nH]3)N2C)c1C [I-115] | 100 to 1000 | 0.01 to 100 | 0.1 to 10 | 0.1 to 10 | 0.1 to 10 |
| Cc1cccnc1[C@@H]1CCC[C@H](c2nc3ccccc3[nH]2)N1Cc1ccccc1-n1cccn1 [I-21, 2-((2R,6S)-1-(2-(1H-pyrazol-1-yl)benzyl)-6-(3-methylpyridin-2-yl)piperidin-2-yl)-1H-benzo[d]imidazole] | 0.01 to 100 | 0.01 to 100 | 10 to 30 | 10 to 30 | 0.1 to 10 |
| Cc1cccnc1[C@@H]1CCC[C@H](c2nc3cccc(N4CCN(C)CC4)c3[nH]2)N1C (single isomer, unassigned) [I-3a] | 0.01 to 100 | 0.01 to 100 | 0.1 to 10 | 0.1 to 10 | – |
